One series has as its system V79 MZ cells. Description: Viability of V79 MZ cells, alone or co-cultured with H1A2 MZ cells (bystander effect), with acetaminophen, trypan blue exclusion. In kind it is cell-based, Chinese hamster. The protocol: Table 1 represents the bystander effect on viability produced by incubating H1A2 MZ cells (stably transfected with human CYP1A2) with various cell-lines in the presence of acetaminophen. Tumour cells or V79 MZ cells (non transfected, parental cells) were co-cultured overnight with various mixtures of H1A2 MZ cells (as indicated in the Table), […] the cells were then washed once with PBS and maintained for either 24 or 48 h in culture medium appropriate to each cell type, as detailed in the Methods section. At 0, 6, 24 or 48 h the cells were washed in PBS and viability of the mixed cell population determined by trypan blue exclusion. The data shown are mean values±SEM of 4 separate determinations. Statistical significance was determined at each time point by comparing viability measurements in the mixed cell populations with both the viability determined at 0 h and in the absence of H1A2 MZ cells in the mixture 2×2 contingency tables using the 2-tailed Chi-squared test with Yate's correction. Viability was determined in a total of 1500 cells at each time point. Levels of significance are indicated as **p<0.001; ***p<0.0001;
FIG. 4 represents the bystander effect on viability produced by incubating stably transfected, acetaminophen-activating H1A2 MZ cells with non-transfected parental V79 MZ cells. […] The cells were then washed in PBS and the viability of the mixed cell population determined by trypan blue exclusion. The cultures comprised V79 MZ cells only (open squares), and V79 MZ cells mixed with 5% (solid squares), 10% (open triangles), 25% (open circles) and 50% (solid circles) H1A2 MZ cells. In addition, the viability of H1A2 MZ cells in the presence (crosses) and absence (solid triangles) of acetaminophen is shown.

Another series has as its system HCT116 cells. Description: Bystander effect on viability of HCT116 cells co-cultured with H1A2 MZ cells in the presence of acetaminophen, trypan blue exclusion. In kind it is cell-based, human. The following applies: for viability at 4000 µM: Homo sapiens. How it is done:
Tumour cells or V79 MZ cells (non transfected, parental cells) were co-cultured overnight with various mixtures of H1A2 MZ cells (as indicated in the Table), washed with PBS and incubated with 4 mM acetaminophen in PBS for 6 h at 37° C. the cells were then washed once with PBS and maintained for either 24 or 48 h in culture medium appropriate to each cell type, as detailed in the Methods section. At 0, 6, 24 or 48 h the cells were washed in PBS and viability of the mixed cell population determined by trypan blue exclusion. The data shown are mean values±SEM of 4 separate determinations. Statistical significance was determined at each time point by comparing viability measurements in the mixed cell populations with both the viability determined at 0 h and in the absence of H1A2 MZ cells in the mixture 2×2 contingency tables using the 2-tailed Chi-squared test with Yate's correction. Viability was determined in a total of 1500 cells at each time point. Levels of significance are indicated as **p<0.001; ***p<0.0001;
For cell viability experiments 200,000 cells per well were plated on 12 well plates (Beckton-Dickenson, Oxford, UK), using the medium and conditions required by the tumour cell line and allowed to adhere overnight. After this the cells were washed with PBS before the addition of acetaminophen in 0.1 ml PBS (concentrations of 0.1–20 mM acetaminophen were dissolved in PBS by sonication) and then maintained at 37° C. At the appropriate time points, cells were removed from the plates by trypsinisation and collected by centrifugation. Cell viability was measured as ability to exclude trypan blue. Cells were counted at ×100 magnification using an Improved Neubauer haemocytometer; all cell counts are the mean of duplicate determinations of five fields from duplicate experiments.
V79 MZ Chinese hamster cells were maintained in Dulbecco-Vogt's modified Eagle's Medium (DMEM) supplemented with 10% foetal calf serum 9FCS), 2 mM L-glutamine, penicillin (100 U/ml and streptomycin (100 μg/ml) (all tissue culture reagents were obtained from Gibco BRL, Paisley, UK). H1A2 MZ cells, which are V79 MZ cells transfected with the human CYP1A2 gene, were also maintained in supplemented DMEM with the addition of geneticin at a concentration of 4 mg/ml. SK-OV-3 cells were grown in DMEM supplemented with 15% FCS and 2 mM L-glutamine, without the addition of antibiotics. RPMI-1640 medium with 10% FCS, 2 mM L-glutamine, penicillin (100 U/ml) and streptomycin ([…]) was required by the HCT116 cells. These cell lines were maintained at 37° C. with 100% humidity and 5% CO2. […] At confluence cells were removed from tissue culture flasks by inubation with trypsin-EDTA for 5 min, diluted 1:3–1:6 in fresh medium and seeded onto fresh flasks. The tumour cell lines were obtained from the European Collection of Cell Cultures.

For a further series, the system named is COS cells. Description: Viability of COS cells transiently transfected with mouse CYP1A2 versus non-transfected COS cells, tritiated thymidine incorporation. In kind it is cell-based. How it is done:
FIG. 1 is a graphical representation of an acetaminophen titration showing the sensitivity of COS cells transiently transfected with a vector incorporating mouse CYP1A2 and non-transfected control COS cells. Cell viability is monitored by tritiated thymidine incorporation;
FIG. 2 is a cell viability time course of COS cells transiently transfected with mouse CYP1A2 and non-transfected control COS cells over a 24 hr period.
Acetaminophen concentration is 10 mM. Cell viability is monitored by tritiated thymidine incorporation;
COS cells are plated at 1.5×10^5 per well in 6 well tissue culture dishes the evening before transfection. […] All tissue culture reagents can be obtained from Gibco BRL, Paisley, UK.
To the LPA/DNA complex, 200 μl of serum free medium is added to each LPA/DNA sample which is then gently added to the cells over a period of 3–4 seconds. Cells are returned to a 37° C. CO2 incubator for 6 hours. […]
Transfected COS cells are either exposed to various concentrations of acetaminophen or incubated in the presence of 10 mM acetaminophen and cell viability monitored with time. ^3H-thymidine (Amersham International UK, 100 Ci/mmol, 5 μCi per assay), is added to treated and control cultures and aliquots removed and acid precipitable counts assessed by liquid scintillation using a Beckton Liquid Scintillation Counter.

SMILES strings stand for the structures.

Usually viability stands for a per cent measure of how many cells are alive, often set against a control.

In the case of `CC(=O)Nc1ccc(O)cc1` [acetaminophen], the “Viability (%)” value is on record as “zero” with V79 MZ cells (V79 MZ cells + 5% H1A2 MZ cells, 4 mM acetaminophen 6 h, then 24 h in culture medium); “no decline in cell viability” in the series on V79 MZ cells (V79 MZ cells, 0% H1A2 MZ cells, 4 mM acetaminophen in PBS, 6 h); “zero” in the series with HCT116 cells (HCT116 cells + 5% H1A2 MZ cells, 4 mM acetaminophen 6 h, then 24 h in culture medium). For the same compound, in the series with V79 MZ cells (V79 MZ cells, which lack CYP1A2, acetaminophen 0.1–20 mM, 6 h), the cell viability result is “no loss of cell viability”. Further, in the series with HCT116 cells (HCT116 cells incubated with 5 and 10% H1A2 MZ cells, 4 mM acetaminophen, 6 h), the “susceptibility to cytotoxicity produced by the activation of acetaminophen” value is “disproportionate decrease in viability”. For the same compound, the viability at 4000 µM was found to be 98 ± 1% with HCT116 cells (HCT-116, 0 h, HCT116 cells + 5% H1A2 MZ cells, 4 mM acetaminophen in PBS, 0 h); 98 ± 1% in the series with HCT116 cells (HCT-116, 0 h, HCT116 cells + 10% H1A2 MZ cells, 4 mM acetaminophen in PBS, 0 h); 97 ± 1% in the series with HCT116 cells (HCT-116, 0 h, HCT116 cells + 25% H1A2 MZ cells, 4 mM acetaminophen in PBS, 0 h); 98 ± 1% in the series with HCT116 cells (HCT-116, 0 h, HCT116 cells + 50% H1A2 MZ cells, 4 mM acetaminophen in PBS, 0 h); 96 ± 1% in the series with HCT116 cells (HCT-116, 0 h, HCT116 cells, 0% H1A2 MZ cells, 4 mM acetaminophen in PBS, 0 h); 69 ± 9% in the series with HCT116 cells (HCT-116, 6 h, HCT116 cells + 5% H1A2 MZ cells, 4 mM acetaminophen in PBS, 6 h). Moreover, the viability at 4000 µM is 60 ± 6% in the series on HCT116 cells (HCT-116, 6 h, HCT116 cells + 10% H1A2 MZ cells, 4 mM acetaminophen in PBS, 6 h); 56 ± 4% with HCT116 cells (HCT-116, 6 h, HCT116 cells + 25% H1A2 MZ cells, 4 mM acetaminophen in PBS, 6 h); 42 ± 6% in the series on HCT116 cells (HCT-116, 6 h, HCT116 cells + 50% H1A2 MZ cells, 4 mM acetaminophen in PBS, 6 h); 96 ± 5% in the series on HCT116 cells (HCT-116, 6 h, HCT116 cells, 0% H1A2 MZ cells, 4 mM acetaminophen in PBS, 6 h); 0% in the series on HCT116 cells (HCT-116, HCT116 cells + 5% H1A2 MZ cells, 4 mM acetaminophen 6 h, then 24 h in culture medium); 0% in the series on HCT116 cells (HCT-116, HCT116 cells + 10% H1A2 MZ cells, 4 mM acetaminophen 6 h, then 24 h in culture medium). Also, the viability at 4000 µM with HCT116 cells (HCT-116, HCT116 cells + 25% H1A2 MZ cells, 4 mM acetaminophen 6 h, then 24 h in culture medium) is 0%; with HCT116 cells (HCT-116, HCT116 cells + 50% H1A2 MZ cells, 4 mM acetaminophen 6 h, then 24 h in culture medium) it was 0%; in the series on HCT116 cells (HCT-116, HCT116 cells, 0% H1A2 MZ cells, 4 mM acetaminophen 6 h, then 24 h in culture medium), 96 ± 2%. The “extent of acetaminophen sensitivity over time (tritiated thymidine incorporation)” value with COS cells (10 mM acetaminophen, transfected COS cells versus non-transfected control cells over 24 hrs) is on record as “increases markedly during the first 4–8 hrs”. For the same compound, in the series with COS cells (acetaminophen titration, COS cells transfected with CYP1A2 (48 hrs expression) versus non-transfected control COS cells), the “sensitivity to acetaminophen (tritiated thymidine incorporation)” value is recorded as “significant increase in sensitivity”.

(Values after patent publication US7091040B1, “P450/acetaminophen genetically directed enzyme prodrug therapy (GDEPT)” (Innovata PLC, priority 1999, dated 2006).)
